Where no end group is shown, it is not given here.
Key:
CPAE cells = assay: Cell growth activity of immobilized peptides (MTT); assay type: cell-based, Calf; conditions: for growth on peptide polymers, times that observed on uncoated PS / growth on adsorbed peptides, times that observed on uncoated PS: wet immobilization protocol; for relative cell growth score, Immobil. Peptide Polymer: illuminated, dry immobilization protocol; for relative cell growth score, Immobil. Peptide Polymer / relative cell growth score, Adsorbed Peptide Reagent: relative to uncoated; for relative cell growth score, Adsorbed Peptide Reagent: nonilluminated
Description: The growth assays were conducted in 24-well PS culture plates. When PU and SR were evaluated, discs of each material (with or without coatings) were placed in the bottoms of the culture plate wells. When PS was evaluated, the bottoms of the wells were coated. For each assay, uncoated and peptide coated biomaterials (PS, PU, and SR) were seeded with CPAE cells at 1500 cells per well and allowed to proliferate in vitro for 4 to 7 days. Then, the media was aspirated and the cell growth was quantitated using MTT dye.
The following table summarizes results that compared cell growth on uncoated substrates, adsorbed peptides, and peptide polymers. As with the attachment assays, the relative numbers of cells growing on each peptide coated biomaterial was divided by the number of cells growing on the uncoated (UC) biomaterials to obtain a relative cell growth score. Each value represents the average of 1 to 4 different experiments, with each experiment being conducted with 3 or 4 replicates. The dry immobilization protocol described herein was used to immobilize all peptides evaluated. Immobil. Peptide Polymer refers to illuminated peptide polymer. Adsorbed Peptide Reagent refers to non illuminated peptide reagent. ND=not determined.
In addition to the peptides shown in the table above, C/H-II and HEP-III were also evaluated for growth on PS. With these two peptides, growth on adsorbed peptides was 1.0 and 1.1 times that observed on uncoated PS, and growth on peptide polymers was 10.5 and 13 times that observed on uncoated PS. These two peptides (polymers and reagent controls) were immobilized via the wet immobilization protocol. The results with C/H-II and HEP-III are the averages of 1and 2 experiments, respectively, with each experiment being conducted with 4 replicates.

[1] = system: Calf pulmonary artery endothelial (CPAE) cells; assay: Cell attachment activity of immobilized peptides (MTT); assay type: cell-based; set-up: key: cells attached to coated ÷ cells attached to uncoated (MTT); conditions: relative to uncoated; for relative cell attachment score, Immobil. Peptide Polymer: illuminated; for relative cell attachment score, Adsorbed Peptide Reagent: nonilluminated
Description: Calf pulmonary artery endothelial (CPAE) cells were purchased from ATCC (American Type Culture Collection, Rockville, Md.) and cultured as indicated by ATCC. The attachment assays were conducted in 48-well PS culture plates. When PU and SR were evaluated, discs of each material (with or without coatings) were placed in the bottoms of the culture plate wells. When PS was evaluated, the bottoms of the wells were coated. For each assay, uncoated and peptide coated biomaterials (PS, PU, and SR) were seeded at 50,000 cells per well in serum free media containing 2 mg/ml of bovine serum albumin (BSA fraction V, from Sigma Chemical Company, St. Louis, Mo.). The cells were allowed to attach to each biomaterial for two hours. Then the unattached cells were removed by aspiration, and the wells were rinsed twice with Hank's Balanced Salt Solution (Celox Corp., Hopkins, Minn.). Finally, the attached cells were quantitated by the addition of culture media containing a metabolic dye, MTT [3-(4,5-dimethylthiazol-2-yl)-2,5-diphenyltetrazolium bromide] which is converted from a yellow tetrazolium salt into an insoluble, purple formazan in the presence of viable cells. After a two hour incubation in culture media containing MTT, the media was removed, and the formazan dye that had been deposited inside the viable cells was solubilized (with acidic isopropanol) and read on a spectrophotometer at 570 nm. The absorbance of the formazan is directly proportional to the number of attached, viable cells present per well.
The following table summarizes results of cell attachment assays comparing immobilized peptide polymers and adsorbed peptide reagent controls. In each case, the relative numbers of cells that attached to the peptide-coated biomaterials (as determined by MTT dye) were divided by the number of cells that attached to the uncoated (UC) biomaterials to obtain a relative cell attachment score. Each value represents the average of 1 to 4 different experiments, with each experiment being conducted with 3 or 4 replicates. The peptides were immobilized onto PS using the wet immobilization protocol described herein and the peptides were immobilized onto SR and PU via the dry immobilization protocol. Immobil. Peptide Polymer refers to illuminated peptide polymer. Adsorbed Peptide Reagent refers to nonilluminated peptide reagent. ND=not determined.

[2] = as obtained from Celsus Laboratories; cited from earlier work
bovine thrombin [3] = biological target: T1, bovine thrombin (Bos taurus, UniProt P00735); assay: Activities of hirudin and hirudin polymer in solution (thrombin inhibition, Chromozym TH); assay type: biochemical; conditions: per mg of hirudin
T1 construct: a known amount of bovine thrombin; purchased Sigma Chemical Co., St. Louis, Mo
Description: The specific activities of hirudin and hirudin polymer were determined by standard protocols provided by Transgene and are expressed as antithrombin units (ATU's) per mg of hirudin. One ATU is the amount of hirudin that is required to inhibit the proteolytic activity of one NIH unit of thrombin. For these assays, a known amount of bovine thrombin (175-350 NIH units/mg., from Sigma Chemical Co., St. Louis, Mo.) was preincubated with a series of dilutions of hirudin or hirudin polymer, and the remaining thrombin activity was determined with a chromogenic substrate, Chromozym TH (from Boehringer Mannheim Corp, Indianapolis, Ind.). The specific activities of hirudin assayed before and after incorporation into the hirudin polymer were 11,710 and 10,204 ATU/mg, respectively. Therefore incorporation of hirudin into the polymer produced only a 13% decrease in its activity.

bovine thrombin [4] = biological target: T1, bovine thrombin; conditions: from Transgene Laboratories; cited from earlier work
immunoglobulin G (IgG) = assay: Activity of protein A polymer coatings: binding and elution of IgG from rabbit serum; conditions: for Fold greater IgG on protein A coating: versus uncoated control
Description: Protein A is a bacterial protein that binds specifically to the Fc region of immunoglobulin G (IgG) molecules. The activity of the protein A coating on each type of membrane was evaluated by assaying for binding by added IgG. Uncoated membranes were used as controls. For this assay, 2 ml of rabbit serum was diluted 1:5 in PBS and perfused through the coated membranes at 2-3 ml/min. The membranes were then washed with PBS to remove unbound IgG. The bound IgG was then eluted with 0.1 M glycine in 2% acetic acid. The amount of eluted IgG was determined by measuring the absorbance of the eluant at 280 nm and using an extinction coefficient (ε280) of 1.4 ml/cm-mg to calculate the mg of eluted IgG. Also the IgG that eluted from each membrane type was evaluated for purity by reduced SDS PAGE analysis. With the biomaterials coated with protein A polymer, the eluted protein was greater than 90% light and heavy chains of IgG. In contrast, the major protein that eluted from uncoated controls was albumin.
Three discs of each type (PSO or RC) were placed in a MAC-25 holder and evaluated using this procedure.

[5] = system: biotin derivatized horseradish peroxidase (biotin-HRP); assay: Streptavidin polymer coating on glass rods: binding of biotin-HRP; conditions: for Absorbance of Biotin-HRP: glass rods
Description: (§1) The organosilane primed glass rods were dipped into a solution of streptavidin polymer for 30 seconds. The glass rods were removed from the solution, allowed to air dry, and illuminated for 30 seconds with a Dymax lamp. Adsorption controls were prepared via the same protocol, except that they were not illuminated. Both type of coated rods were washed with PBS containing 0.05% Tween 20 to remove nonadherent streptavidin polymer.
(§2) Streptavidin is a receptor that binds strongly to biotin as its ligand. The activity of streptavidin polymer coating was evaluated by quantifying the binding of added biotin derivatized horseradish peroxidase (biotin-HRP, obtained from Pierce Chemical Company, Rockford, Ill.). The glass rods were incubated for one hour in a 9 μg/ml solution of biotin-HRP. The binding of underivatized HRP (added at 9 μg/mi) was evaluated as a control for nonspecific binding of HRP to the glass rods. The rods were then washed with PBS containing 0.05% Tween 20 to remove nonbound HRP, and the relative activity of bound HRP was evaluated with a TMB peroxidase substrate system (Kirkegaard and Perry Laboratory, Inc., Gaithersburg, Md.). HRP catalyzes the oxidation of TMB and produces a color that is quantitated spectrophotometrically at 405 nm. Each result is the average of 3 determinations.

underivatized HRP = biological target: T2, underivatized HRP (Armoracia rusticana, UniProt P00433); assay: Streptavidin polymer coating on glass rods: nonspecific binding of underivatized HRP
T2 sequence (P00433 31-338): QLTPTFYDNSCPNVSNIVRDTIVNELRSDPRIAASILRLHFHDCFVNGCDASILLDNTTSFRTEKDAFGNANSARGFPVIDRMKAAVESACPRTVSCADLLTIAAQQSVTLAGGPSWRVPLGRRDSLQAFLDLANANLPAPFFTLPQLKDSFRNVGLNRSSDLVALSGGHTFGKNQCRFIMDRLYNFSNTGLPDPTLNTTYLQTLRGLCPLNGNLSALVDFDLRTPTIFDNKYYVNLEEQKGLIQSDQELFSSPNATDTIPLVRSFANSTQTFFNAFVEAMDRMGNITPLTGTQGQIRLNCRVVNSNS
Description: as §1, §2

[6] = Polyurethane, dry immobilization protocol
[7] = Silicone Rubber, dry immobilization protocol

## C/H-II polymer: photoreactive polyacrylamide copolymer of C/H-II peptide monomer (SEQ ID NO: 10), BBA-APMA and acrylamide (CKNNQKSEPLIGRKKT; also: photoreactive polyacrylamide copolymer with BBA-APMA and acrylamide)
CPAE cells
  growth on peptide polymers, times that observed on uncoated PS: 10.5 times

## C/H-V polymer: photoreactive polyacrylamide copolymer of C/H-V peptide monomer (SEQ ID NO: 9), BBA-APMA and acrylamide (CKKWQPPRARI; also: photoreactive polyacrylamide copolymer with BBA-APMA and acrylamide)
[1]; [6]
  relative cell attachment score, Immobil. Peptide Polymer: 1.4
[1]; [7]
  relative cell attachment score, Immobil. Peptide Polymer: 1.3
CPAE cells; Polystyrene, 4 to 7 days
  relative cell growth score, Immobil. Peptide Polymer: 11.3
CPAE cells; Polyurethane
  relative cell growth score, Immobil. Peptide Polymer: 3.9
CPAE cells; Silicone Rubber
  relative cell growth score, Immobil. Peptide Polymer: 1.0

## CKKWQPPRARI [C/H-V reagent control, C/H-V peptide not incorporated into polymer, fibronectin-derived, reference compound]
[1]; Silicone Rubber
  relative cell attachment score, Adsorbed Peptide Reagent: 0.4
CPAE cells; Polystyrene
  relative cell growth score, Adsorbed Peptide Reagent: 1.0
CPAE cells; Polyurethane
  relative cell growth score, Adsorbed Peptide Reagent: 0.7
CPAE cells; Silicone Rubber
  relative cell growth score, Adsorbed Peptide Reagent: 2.0

## Cys Lys Asn Asn Gln Lys Ser GIu Pro Leu Ile Gly Arg Lys Lys Thr [C/H-II reagent control, reference compound]
CPAE cells
  growth on adsorbed peptides, times that observed on uncoated PS: 1.0 times

## Cys Lys Gly Glu Phe Try Phe Asp Leu Arg Leu Lys Gly Asp Lys [HEP-III reagent control, reference compound]
CPAE cells
  growth on adsorbed peptides, times that observed on uncoated PS: 1.1 times

## F-9 polymer: photoreactive polyacrylamide copolymer of F-9 peptide monomer (SEQ ID NO:11), BBA-APMA and acrylamide (RYVVLPRPVCFEKK; also: photoreactive polyacrylamide copolymer with BBA-APMA and acrylamide)
[1]; Polystyrene, wet immobilization protocol
  relative cell attachment score, Immobil. Peptide Polymer: 5.7
[1]; [6]
  relative cell attachment score, Immobil. Peptide Polymer: 1.9
[1]; [7]
  relative cell attachment score, Immobil. Peptide Polymer: 0.9
CPAE cells; Polystyrene, 4 to 7 days
  relative cell growth score, Immobil. Peptide Polymer: 14.8
CPAE cells; Polyurethane
  relative cell growth score, Immobil. Peptide Polymer: 7.7
CPAE cells; Silicone Rubber
  relative cell growth score, Immobil. Peptide Polymer: 2.4

## GRGDSPKKC [RGD reagent control, reference compound]
[1]; Polystyrene
  relative cell attachment score, Adsorbed Peptide Reagent: 1.4
[1]; Silicone Rubber
  relative cell attachment score, Adsorbed Peptide Reagent: 1.1
CPAE cells; Polystyrene
  relative cell growth score, Adsorbed Peptide Reagent: 1.2
CPAE cells; Polyurethane
  relative cell growth score, Adsorbed Peptide Reagent: 1.7
CPAE cells; Silicone Rubber
  relative cell growth score, Adsorbed Peptide Reagent: 1.1

## HEP-III polymer: photoreactive polyacrylamide copolymer of HEP-III peptide monomer (SEQ ID NO: 12), BBA-APMA and acrylamide (CKGEFYFDLRLKGDK; also: photoreactive polyacrylamide copolymer with BBA-APMA and acrylamide)
CPAE cells
  growth on peptide polymers, times that observed on uncoated PS: 13 times

## RYVVLPRPVCFEKK [F-9 reagent control, F-9 peptide not incorporated into polymer, laminin-derived, reference compound]
[1]; Polystyrene
  relative cell attachment score, Adsorbed Peptide Reagent: 0.8
CPAE cells; Polystyrene
  relative cell growth score, Adsorbed Peptide Reagent: 1.0
CPAE cells; Polyurethane
  relative cell growth score, Adsorbed Peptide Reagent: 1.7
CPAE cells; Silicone Rubber
  relative cell growth score, Adsorbed Peptide Reagent: 1.7

## heparin [Unbleached heparin]
[2]
  heparin activity: 152 units/mg

## hirudin
Bovine thrombin [3]
  specific activity: 11,710 ATU/mg
Bovine thrombin [4]
  activity of recombinant hirudin as obtained: 16,500±2000 ATU/mg

## protein A polymer: photoreactive polyacrylamide containing recombinant staphylococcal protein A ligands
Immunoglobulin G (IgG); Polysulfone membrane, average of 10 cycles
  IgG eluted: 0.680 mg/disc
Immunoglobulin G (IgG); Polysulfone
  Fold greater IgG on protein A coating: 34
Immunoglobulin G (IgG); Regenerated cellulose membrane, average of 3 cycles
  IgG eluted: 0.383 mg/disc
Immunoglobulin G (IgG); Regenerated cellulose
  Fold greater IgG on protein A coating: 64

## streptavidin polymer: photoreactive polyacrylamide containing streptavidin ligands
[5]; biotin-HRP added
  peroxidase activity of adsorbed, fold less than covalent: 3.5 fold
[5]; adsorbed (nonilluminated)
  Absorbance of Biotin-HRP: 0.285
[5]; covalent (photoimmobilized)
  Absorbance of Biotin-HRP: 1.005
Underivatized HRP; adsorbed (nonilluminated)
  Absorbance of HRP: 0.065
Underivatized HRP; covalent (photoimmobilized)
  Absorbance of HRP: 0.056

Source: patent publication US6514734B1, “Polybifunctional reagent having a polymeric backbone and latent reactive moieties and bioactive groups” (Surmodics, Inc., priority 1997, dated 2003)
